From US9657017B2, “Crystal form of (R)-praziquantel and preparation method and application thereof” (TONGLI BIOMEDICAL CO., LTD., priority 2013, dated 2017)
≈ marks a conversion by molar mass, not a printed value. Like-named read-outs stand apart in the source and are kept apart here.

Columns and labels:
[1] = Solubility of crystal forms in water and simulated gastric-intestinal fluid; type: physicochemical; conditions: 25° C.; for solubility at 18 h: thermodynamic from solid
Method: About 2 mg of each compound was respectively placed in several glass vials, and pure water, simulated gastric fluid (SGF), simulated intestinal fluid under fasted status (FaSSIF), and simulated intestinal fluid under fed status (FeSSIF) were respectively added to prepare a final sample concentration of 2 mg/mL. The samples were sonicated to be dispersed evenly and then rotated 360 degree-wise to equilibrate for 18 hours at room temperature (25° C.). After the equilibration, the samples were visually inspected to check whether they were completely dissolved, and then filtrated through […] filter membrane. The resulted filtrate was diluted with suitable solvent for HPLC analysis.

schistosoma japonicum = assay: In vitro culture anti-schistosoma japonicum activity (worm activity inhibition); type: cell-based; conditions: for IC50: spasm or paralysis of schistosoma japonicum considered as active, in vitro culture 37° C., read-out: IC50 ± L95 (median inhibitory concentration, 95% confidence interval)
Method: Comparison of anti-schistosoma japonicum activity between the crystal forms of (R)-praziquantel and praziquantel in in vitro culture experiment, which was specifically as follow: […] An aliquot of the drug solution (5-50 μL) was transferred and diluted with culture medium (prepared by Tyrode's solution and calf serum at 9:1, pH 7.4, containing 100 IU/mL penicillin and 100 IU/mL streptomycin) to a desired concentration (0.0001-100 μg/mL). Japanese white rabbits and Kunming hybrid mice were infected with cercariae of schistosoma japonicum for 5-8 weeks. Under aseptic condition, mesenteric vein and liver were perfused with normal saline, and the recovered schistosomes were washed with Tyrode's solution twice and then transferred into culture medium and cultured at 37° C. for use. […] The worm activity and changes on body surface were observed under stereomicroscope and inverted microscope at room temperature. The active levels of worm were defined as below: • ++++ Worm twitching or rolling intensively; • +++ Worm wriggling or paroxysmally trembling frequently; • ++ Worm migrating freely with enterocinesia; • + Movement of worm weakened and enterocinesia disappeared; • ± No movement of worm was observed under stereomicroscope (×30), and slight movement of mouth and ventral suckers were observed under inverted microscope (×250); • − No movement of worm was observed under inverted microscope (×250); • wherein +++ and ++++ refer to worm excitement; ++ refers to normal worm activity; + and ± refers to inhibition of worm activity; worm was considered to death if the result was still negative after observing for 5 min.

clonorchis sinensis = assay: In vivo anti-parasitic activity in SD rats infected with clonorchis sinensis
Method: Evaluation of in vivo anti-parasitic activity of (R)-praziquantel crystal form in SD rats infected with clonorchis sinensis, which was specifically as follow: Each of total 29 SD rats with 200˜300 g of body weight were given with 30 metacercariae of clonorchis sinensis via gavage intragastrically. On Day 35 post infection, fecal smear examination was conducted, and worm eggs of clonorchis sinensis were found in all of the smears which confirmed successful modeling. Subsequently, the rats were randomly divided into (R)-praziquantel group (n=14) and blank control group (n=15). […] Seven days after the end of the treatment, worms are recovered from the bile ducts under sterility condition. The averaged number of recovered worms, mean recovery rate of worms and cure rate after treatment were calculated, and the results are shown in Table 5.

[2] = rat, in vivo, po, 75 mg/kg
Source text: Investigation on characteristic of the plasma concentrations of (R)-praziquantel crystal form in rats after oral administration, which was specifically as follow: […]

[3] = 100 mg/kg gavage twice a day for two days

Compound: O=C(C1CCCCC1)N1CC(=O)N2CCc3ccccc3C2C1 (racemic) [Praziquantel crystal form, praziquantel]
- solubility at 18 h ([1]; FaSSIF (simulated intestinal fluid, fasted), equilibrated 18 hours, read-out: Average solubility): 193 µg/mL (≈ 618 µM)
- solubility at 18 h ([1]; FeSSIF (simulated intestinal fluid, fed), equilibrated 18 hours, read-out: Average solubility): 313 µg/mL (≈ 1000 µM)
- solubility at 18 h ([1]; SGF (simulated gastric fluid), equilibrated 18 hours, read-out: Average solubility): 192 µg/mL (≈ 615 µM)
- solubility at 18 h ([1]; Water, equilibrated 18 hours, read-out: Average solubility): 199 µg/mL (≈ 637 µM)
- solubility at 18 h ([1]; water, SGF, FaSSIF and FeSSIF, range over media, read-out: solubility in water and in simulated gastro-intestinal fluid): 190 to 310 µg/mL (≈ 608 to 992 µM)
- effect on schistosoma japonicum worms (schistosoma japonicum; in vitro culture): induce contraction and paralysis
- IC50 (schistosoma japonicum): 42 ± 18 nM

Compound: O=C(C1CCCCC1)N1CC(=O)N2CCc3ccccc3[C@@H]2C1 [(R)-praziquantel crystal form, (R)-praziquantel]
- Average solubility ([1]; FaSSIF (simulated intestinal fluid, fasted), equilibrated 18 hours): 302 µg/mL
- Average solubility ([1]; FeSSIF (simulated intestinal fluid, fed), equilibrated 18 hours): 433 µg/mL
- Average solubility ([1]; SGF (simulated gastric fluid), equilibrated 18 hours): 303 µg/mL
- Average solubility ([1]; Water, equilibrated 18 hours): 305 µg/mL
- effect on schistosoma japonicum worms (schistosoma japonicum; in vitro culture): induce contraction and paralysis
- IC50 relative to that of praziquantel crystal form (schistosoma japonicum; in vitro culture, P<0.01): ⅕
- IC50 (schistosoma japonicum): 8 ± 4 nM
- Cure rate (clonorchis sinensis; [3]): 100%
- Mean recovery rate of worms (clonorchis sinensis; [3]): 0%
- No. of Cured animal (clonorchis sinensis; 100 mg/kg gavage twice a day for two days, 14 animals, worms recovered 7 days after treatment): 14
- No. of Average of recovered worm, X ± SD (clonorchis sinensis; 100 mg/kg gavage twice a day for two days, worms from bile ducts): 0
- worm body in rat feces (clonorchis sinensis; treatment group): no worm body found
- area under plasma concentration-time curve [2]: 3572 ± 1793 ng·h/mL
- peak plasma concentration [2]: 3132 ± 1440 ng/mL
- time to reach peak plasma concentration [2]: 15 min
